Experimental data as given in patent publication US4980359A, “Isoquinoline derivatives and their use” (Sandoz Ltd., priority 1988, dated 1990).

What was measured:
[1] = test system: PAF-induced lung eosinophil accumulation; assay: Inhibition of eosinophil accumulation (PAF-induced lung eosinophilia); type: in vivo, Guinea-pigs (Dunkin-Hartley); details: Cavia porcellus, sc, 168 h, method C, over 7 days
Procedure: EXAMPLE C: INHIBITION OF EOSINOPHIL ACCUMULATION
Guinea-pigs (Dunkin-Hartley 400-600 g) are injected intraperitoneally with 10 μg/kg of PAF, a procedure which produces lung eosinophilia.
Animals are sacrificed with pentobarbital (100 mg/kg i.p.) 24 hours later. The trachea is exposed and cannulated and the airway lumen washed by introduction and aspiration of 10 ml aliquots (x6) of buffered modified Tyrode solution (composition mM: NaHCO3 11.9, NaCl 136.9, KCl 2.7, Na2 HPO4, glucose 5.6, EDTA 19.8; protein % w/v=gelatin 0.1, BSA 0.5; pH to 7.4 by addition of 2N NaOH). Total fluid recovery generally exceeds 80%.
Cell suspensions are concentrated by low speed centrifugation (200 g for 10 mins.) and the resulting cell pellet is resuspended in 1 ml modified Tyrode solution. Total cell counts are effected in a haemocytometer by diluting 10 μl cell suspension in 90 μl Turks fluid. Differential cell counts are made from smears fixed in 100% methanol and stained with Leishman stain. At least 500 cells smear are counted at 1000 fold magnification to differentiate cell types.
Test compound is administered over 7 days at varying concentration in 1 mg/kg s.c. amounts with exposure to PAF occurring 5 days after commencement of test compound administration. […]

[2] = test system: guinea-pig tracheal ring preparations; assay: Bronchospasmolytic activity in vitro (relaxation of tracheal rings); details: Cavia porcellus; method A.1, guinea-pig tracheal rings in vitro
Excerpt: 1. Bronchospasmolytic activity in vitro
The trachea is excised from freshly sacrificed guinea-pigs (Dunkin-Hatley (350-500 g) and transected in the transverse plane to give rings of tissue of ca. 3-5 mm deep. Individual rings are mounted vertically on stainless steel supports, one of which is fixed at the base of an organ bath, the other being attached to an isometric transducer. The rings are bathed in Krebs solution (composition […]: NaHCO3 25, NaCl 113, KCl 4.7, MgSO4.7H2) 1.2, KHhd 2PO4 1.2, CaCl2 2.5, Glucose 11.7) at 37° C. and gassed with O2 /CO2 (95:5, v/v). Rings prepared in this manner, preloaded with 1 g, generate spontaneous tone and, after a period of equilibration (45-60 min.), relax consistently on addition of spasmolytic drugs. Tension can be enhanced by addition of carbachol (10^-6 M) or histamine (10^-4 M). To ascertain spasmolytic activity, test substances are dissolved in physiological saline and added in increasing quantities to the organ bath at 10 min. intervals to provide a cumulative concentration-effect curve.
In the above test model compounds of formula I and their pharmaceutically acceptable acid addition salts produce concentrationrelated relaxation of guinea-pig tracheal ring preparations irrespective of the contractile agency at concentrations of from about 10^-7 to about 10^-5 M.

[3] = test system: PAF-induced airways hyperreactivity; assay: Suppression of airways hyperreactivity, PAF-treated animals; type: in vivo, Guinea-pigs; details: Cavia porcellus, iv, method B
Procedure: Guinea-pigs are anesthetized and prepared for recording of lung function as described under example A.2. above. Intravenous injection of low dose bombesin (240 ng/kg) establishes airways sensitivity to spasmogens. Following infusion of PAF (platelet activating factor) over 1 hr.

[4] = test system: bombesin-induced bronchospasm; assay: Bronchodilator activity in vivo (reversal of bombesin-induced bronchospasm); set-up: species or system Guinea pigs (Dunkin-Hartley); details: Cavia porcellus, method A.2, intra. duodenally
Procedure: 2. Bronchodilator activity in vivo
Guinea pigs (Dunkin-Hartley, .male., 400-600 g) are anesthetized with phenobarbital (100-mg/kg i.p.) and pentobarbital (30 mg/kg i.p.) and paralyzed with gallamine (10 mg/kg i.m.). Animals are ventilated via a tracheal cannula (10 ml/kg, 1Hz.). Blood pressure and heart rate are recorded at the carotid artery. Ventilation is monitored by a Fleisch flow transducer in lien with the inspiratory circuit. When making measurements of flow, coincident pressure changes in the thorax are monitored directly via an intrathoracic trochar, permitting display of differential pressure relative to the trachea. From this information resistance and compliance are calculated at each inspiration.
Continuous intravenous infusion of bombesin (50-100 ng/kg/min) induces sustained bronchospasm. Capacity of test-substance to reverse response when administered intra-duodenally via a 12 gauge metal needle fixed by a purse string ligature into the peripheral end of the transected duodenum serves as a measure of efficacy in reversing established bronchospasm.
The bronchodilator response is taken as the percentage reduction of the maximal response to bombesin, measured at regular intervals, up to 64 mins..

## Cn1c(=O)c2[nH]cnc2n(C)c1=O [Theophylline, theophylline]
[1]
  ED50: 5 mg/kg
[2]
  IC50: 77 µM
[3]
  ED50: 5 mg/kg
[4]
  ED50: 11 mg/kg

## COCCOc1cc(OCCOC)cc(-c2nc(C)cc3cc(OC)c(OC)cc23)c1 [Example 12, 3-methyl-6,7-dimethoxy-1-(3,5-dimethoxyethoxy-phenyl)-isoquinoline]
[1]
  ED50: < 2 mg/kg
[2]
  IC50: 0.3 µM
[3]
  ED50: < 1 mg/kg
[4]
  ED50: ~2 mg/kg
